Assay results from ChEMBL document CHEMBL1201862, “PubChem BioAssay data set” (2004).
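96-well plates; 48 h exposure; 5 concentrations. Endpoints by linear interpolation between flanking doses. Not reached: highest tested concentration assigned. GI50 = concentration required for 50% inhibition of growth.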 Calls of active or inactive are those of the source. No stated cut-off is given here; in the data, active = GI50 up to about 1.1 µM and inactive = higher.

Key:
Test in all cases: inhibition of tumour cell growth, NCI panel, 48 h
[1] = tested on: OVCAR-5
[2] = tested on: 786-0
[3] = tested on: HL-60
[4] = tested on: EKVX
[5] = tested on: CCRF-CEM
[6] = tested on: MOLT-4
[7] = tested on: HCC 2998
[8] = tested on: CAKI-1
[9] = tested on: UO-31
[10] = tested on: NCI-H23
[11] = tested on: KM12
[12] = tested on: A549
[13] = tested on: NCI-H460
[14] = tested on: RPMI-8226
[15] = tested on: SN12C
[16] = tested on: ACHN

Measured: GI50

CC1CCC(=O)NCCCCC(=O)N1 (stereo not given)
inactive: [1] > 100 µM | [2] > 100 µM | [3] > 100 µM | [4] > 100 µM | [5] > 100 µM | [6] > 100 µM | [7] > 100 µM | [8] > 100 µM | [9] > 100 µM | [10] > 100 µM | [11] > 100 µM | [12] > 100 µM | [13] > 100 µM | [14] > 100 µM | [15] > 100 µM | [16] > 100 µM

NC(=O)N/N=C(\Cc1nc2ccc(C(=O)c3ccccc3)cc2nc1O)C(=O)Nc1ccc(Br)cc1
inactive: [1] > 100 µM | [2] > 100 µM | [3] > 100 µM | [4] > 100 µM | [5] > 100 µM | [6] > 100 µM | [7] > 100 µM | [8] > 100 µM | [9] > 100 µM | [10] > 100 µM | [11] > 100 µM | [12] > 100 µM | [13] > 100 µM | [14] > 100 µM | [15] > 100 µM | [16] > 100 µM

CN1CCCNCCN(CCc2ccccn2)CCCN(C)CC1
inactive: [1] > 100 µM | [2] 24.2 µM | [3] > 48.8 µM | [4] > 91.4 µM | [5] > 41.9 µM | [6] > 100 µM | [7] > 100 µM | [8] > 100 µM | [9] > 100 µM | [10] > 100 µM | [11] > 67.6 µM | [12] > 100 µM | [13] > 67.3 µM | [14] > 52.8 µM | [15] > 100 µM | [16] > 100 µM

COc1cc(/C=C(\OC(C)=O)c2ccc3c(c2)OCO3)cc(OC)c1OC
inactive: [1] 24.5 µM | [2] 29 µM | [3] 27.4 µM | [4] 15.9 µM | [5] 25.4 µM | [6] 13.3 µM | [7] > 10 µM | [8] 22.1 µM | [9] 4.15 µM | [10] 16.4 µM | [11] 19 µM | [12] 26.7 µM | [13] 33 µM | [14] 20.8 µM | [15] 20.2 µM | [16] 17.9 µM

Cc1cc2c(=O)n(-c3ccc(F)cc3)c(C)nc2c(C(=O)O)c1C
inactive: [1] > 100 µM | [2] > 100 µM | [3] > 100 µM | [4] > 100 µM | [5] > 100 µM | [6] > 100 µM | [7] > 100 µM | [8] > 100 µM | [9] > 100 µM | [10] > 100 µM | [11] > 100 µM | [12] > 100 µM | [13] > 100 µM | [14] > 100 µM | [15] > 100 µM | [16] > 100 µM
